From PubChem BioAssay AID493193 (Broad Institute, 2011)
Activity calls are given as the source filed them. How the calls were made is not given here.

Experiments:
PubChem AID 493193 = conditions: U2OS HRE-luciferase reporter, luminescence, HIF pathway activation; at 38 µM (top of the series)
[1] = tested on: U2OS HRE-luciferase reporter, luminescence, HIF pathway activation; test: PubChem AID 493193

Structure (SMILES): COc1ccccc1N1CCN(Cc2ccc(O)c3ncccc23)CC1
- activation (PubChem AID 493193): 10.3% (inactive)

Structure (SMILES): c1ccc(-c2nnc(-c3ccccn3)nc2N2CCC(C3CCCCC3)C2)cc1 (stereo not given)
- AC40 [1]: 3.71 µM

Structure (SMILES): c1ccc(-c2nnc(-c3ccccn3)nc2N2CCC(c3ccccc3)C2)cc1 (stereo not given)
- AC40 [1]: 3.55 µM

Structure (SMILES): c1ccc(-c2nnc(-c3ccccn3)nc2NCC2CCOCC2)cc1
- AC40 [1]: 26.1 µM

Structure (SMILES): Cc1ccc(CNc2nc(-c3ccccn3)nnc2-c2ccccc2)cc1C
- AC40 [1]: 3.09 µM

Structure (SMILES): Clc1cccc(CNc2nc(-c3ccccn3)nnc2-c2ccccc2)c1
- AC40 [1]: 2.5 µM

Structure (SMILES): c1ccc(CCNc2nc(-c3ccccn3)nnc2-c2ccccc2)cc1
- AC40 [1]: 2.98 µM

Structure (SMILES): CC(C)(C)CCNc1nc(-c2ccccn2)nnc1-c1ccccc1
- AC40 [1]: 2.74 µM

Structure (SMILES): Oc1ccc(CN2CCc3ccccc3C2)c2cccnc12
- activation (PubChem AID 493193): 0.929% (inactive)
- AC40 [1]: 19.5 µM

Structure (SMILES): COc1ccc(CNc2nc(-c3ccccn3)nnc2-c2ccccc2)cc1
- AC40 [1]: 5.05 µM

Structure (SMILES): Oc1ccc(CNC2Cc3ccccc3C2)c2cccnc12
- activation (PubChem AID 493193): 21.4% (inactive)

Structure (SMILES): Oc1ccc(CN2CCC(Cc3ccccc3)CC2)c2cccnc12
- activation (PubChem AID 493193): 14.5% (inactive)

Structure (SMILES): C[C@@H](Nc1nc(-c2ccccn2)nnc1-c1ccccc1)c1ccccc1
- AC40 [1]: 6.45 µM

Structure (SMILES): c1ccc(-c2ccc(CNc3nc(-c4ccccn4)nnc3-c3ccccc3)cc2)cc1
- AC40 [1]: 1.92 µM

Structure (SMILES): C[C@@H](Nc1nc(-c2ccccn2)nnc1-c1ccccc1)C1CCCCC1
- AC40 [1]: 6.18 µM

Structure (SMILES): N#CC1(c2ccccc2)CCN(Cc2ccc(O)c3ncccc23)CC1
- activation (PubChem AID 493193): 9.09% (inactive)

Structure (SMILES): Oc1ccc(CN2CCC3CCCCC3C2)c2cccnc12 (stereo not given)
- AC40 [1]: 32.7 µM

Structure (SMILES): Oc1ccc(CNC2CCc3ccccc32)c2cccnc12 (stereo not given)
- activation (PubChem AID 493193): 7.38% (inactive)

Structure (SMILES): CC1CN(Cc2ccc(O)c3ncccc23)CC(C)O1 (stereo not given)
- activation (PubChem AID 493193): 1.16% (inactive)

Structure (SMILES): c1ccc(-c2nnc(-c3ccccn3)nc2NCc2cccnc2)cc1
- AC40 [1]: 24.3 µM

Structure (SMILES): COc1cccc(CNc2nc(-c3ccccn3)nnc2-c2ccccc2)c1
- AC40 [1]: 4.85 µM

Structure (SMILES): c1ccc(-c2nnc(-c3ccccn3)nc2NCc2ccccn2)cc1
- AC40 [1]: 26 µM

Structure (SMILES): OCC1CCN(Cc2ccc(O)c3ncccc23)CC1
- activation (PubChem AID 493193): 8.79% (inactive)

Structure (SMILES): c1ccc(-c2nnc(-c3ccccn3)nc2NCCc2ccccn2)cc1
- AC40 [1]: 15.4 µM

Structure (SMILES): CC(C)(C)OC(=O)N1CCN(Cc2ccc(O)c3ncccc23)CC1
- activation (PubChem AID 493193): 4.98% (inactive)

Structure (SMILES): c1ccc(-c2cccc(CNc3nc(-c4ccccn4)nnc3-c3ccccc3)c2)cc1
- AC40 [1]: 2.15 µM

Structure (SMILES): CC(Nc1nc(-c2ccccn2)nnc1-c1ccccc1)c1ccccc1 (stereo not given)
- AC40 [1]: 5.33 µM

Structure (SMILES): CC(C)(C)c1ccc(CNc2nc(-c3ccccn3)nnc2-c2ccccc2)cc1
- AC40 [1]: 2.09 µM

Structure (SMILES): C[C@H](Nc1nc(-c2ccccn2)nnc1-c1ccccc1)C1CCCCC1
- AC40 [1]: 4.15 µM
